The values below come from EP4692088A1, “COMPOUND ACTING AS WRN HELICASE INHIBITOR” (SHANGHAI JEYOU PHARMACEUTICAL CO., LTD., priority 2023, dated 2024).

The test system of data set [1] is SW48. The experiment in a line: γH2AX induction assay (HTRF Phospho-H2AX), SW48. The class given is cell-based. The following applies: Homo sapiens, SW-48, incubated for 2-3 days, read-out: γ-H2AX induction SW-48 (EC50 nM). How it is done:
(§1) SW48, HCT116, and SW620 cells were plated into 96-well cell culture plates at a density of 15,000-25,000 cells/well and cultured overnight in a 37°C incubator. The test compounds, which were gradient-diluted with DMSO, were added and incubated for 2-3 days. The γ-H2AX level was detected using HTRF Phospho-H2AX (SER139) Detection Kits. The 4× Lysis buffer and Detection buffer were equilibrated to room temperature for later use. The 4× Lysis buffer was diluted to 1× Lysis buffer using ddH2O. After the medium was aspirated, 50 µL of 1× Lysis buffer was added to each well and shaken at room temperature for 30 minutes for lysis. 16 µL of lysate was transferred to a 384-well plate, followed by the addition of 4 µL of diluted antibody mixture (Phospho-H2AX d2 antibody and Phospho-H2AX Eu Cryptate antibody were each diluted 20-fold using Detection buffer, and the two antibodies were then mixed uniformly at a 1:1 volume ratio). The mixture was incubated at room temperature for 2-24 h, and fluorescence signals at […] and 615 nm were detected using a microplate reader. Parallel treatment plates were simultaneously set up in the experiment, and cell viability was detected using the CellTiter-Glo kit. The CellTiter-Glo reagent was equilibrated to room temperature, and an appropriate amount was added to the cell plate, followed by shaking at room temperature for 12 min. The luminescence signal was detected using a microplate reader.
(§2) The fluorescence signal values of DMSO-treated wells and positive drug-treated wells were used as negative and positive controls, respectively, to calculate the level of γ-H2AX induced by the compounds. The concentration-induction rate curve was fitted using the "log(agonist) vs. response -- Variable slope (four parameters)" equation in GraphPad Prism 8 software to obtain the EC50. [formula] [formula]
A general note: TR-FRET usually uses a lanthanide donor and a delayed reading to cut background.

Data set [2] relates to HCT116. In words: γH2AX induction assay (HTRF Phospho-H2AX), HCT116. The class given is cell-based. The following applies: Homo sapiens, HCT-116, incubated for 2-3 days, read-out: γ-H2AX induction HCT-116 (EC50 nM). The procedure:
as §1, §2

The subject of data set [3] is SW620 cells. The experiment in a line: γH2AX induction assay (HTRF Phospho-H2AX), SW620. The following applies: Homo sapiens, SW-620 (MSS), incubated for 2-3 days, read-out: γ-H2AX induction SW-620 (EC50 nM). The class given is cell-based. How it is done:
as §1, §2

Data set [4] in a line: Pharmacokinetic test in rats. The data set is classed as in vivo. The note with it: rat, SD rats, male, oral gavage, 10 mg/kg, plasma. The procedure: SD rats were taken as test animals. Example 4, Example 15, and Comparative Example HRO761 were given by gavage. The drug concentrations in rat plasma at different time points were determined by LC-MS/MS to investigate the pharmacokinetic characteristics of Example 4, Example 15, and Comparative Example HRO761 in rats.
• Experimental drugs: Example 4, Example 15, and Comparative Example HRO761; • Animals: SD rats, male, 240-260 g, purchased from Shanghai Jihui Laboratory Animal Care Co.,Ltd.
An appropriate amount of Example 4, Example 15, and Comparative Example HRO761 was weighed and added to an appropriate amount of dimethyl sulfoxide, solutol, and saline (final solvent: 5% DMSO + 10% solutol + 85% saline). The mixture was vortexed and sonicated to prepare a 1.0 mg/mL dosing solution.
The rats in gavage groups (3 rats per group) of Example 4, Example 15, and Comparative Example HRO761 were administered by oral gavage after overnight fasting (dose: 10 mg/kg, administration volume: 10 mL/kg), and the rats were fed 4 h after administration.
0.2 mL of blood was collected from the animals before administration and at 0.083 h, 0.25 h, 0.5 h, 1 h, 2 h, 4 h, 6 h, 8 h, and 24 h after administration, and anticoagulated with sodium heparin. Blood samples were placed on ice after collection, and plasma was separated by centrifugation (centrifugation conditions: 8000 rpm, 5 min). The collected plasma was stored at -80°C before analysis.
The contents of Example 4, Example 15, and Comparative Example HRO761 in rat plasma after oral administration were determined by LC-MS/MS.
Based on the calculated concentrations of the compounds in plasma at different time points, the pharmacokinetic parameters of Example 4, Example 15, and Comparative Example HRO761 in rats were calculated using winnonlin software. The pharmacokinetic parameters of Example 4, Example 15, and Comparative Example HRO761 of the present disclosure are shown in Table 14.

Data set [5] relates to LoVo. The experiment in a line: Cell proliferation assay (CellTiter-Glo), LoVo. The data set is classed as cell-based. The note with it: Homo sapiens, 120 h, 5 days incubation. The procedure: (§3) SW48 cells were plated at a density of 1,500 cells/well, and LoVo, HCT116, and SW620 cells were plated at a density of 800 cells/well in a 96-well cell culture plate, and cultured in a 37°C incubator overnight. The test compounds, which were gradient-diluted with DMSO, were added, and after incubation for 5 days, cell viability was detected using a CellTiter-Glo kit. The CellTiter-Glo reagent was equilibrated to room temperature, and an appropriate amount was added to the cell plate, followed by shaking at room temperature for 12 min. The luminescence signal was detected using a microplate reader.
(§4) The luminescence signal values of the DMSO-treated wells and cell-free wells were used as negative and positive controls, respectively, to calculate the inhibition rate of compound on cell proliferation. The concentration-inhibition curve was fitted using the "log(inhibitor) vs. normalized response -- Variable slope" equation in GraphPad Prism 8 software to obtain the IC50. [formula]

Data set [6] relates to SW48 cells. The experiment in a line: Cell proliferation assay (CellTiter-Glo), SW48. The note with it: Homo sapiens, SW48, 120 h, SW-48, 5 days incubation. The data set is classed as cell-based. The procedure: as §3, §4
In general terms: ATP-based viability assays read luminescence as a measure of living cells.

Data set [7] has as its system SW620 cells. In words: Cell proliferation assay (CellTiter-Glo), SW620. The class given is cell-based. The note with it: Homo sapiens, 120 h, SW-620 (MSS), 5 days incubation. How it is done:
as §3, §4

Data set [8] can be described thus: Pharmacokinetic test in mice. The note with it: mouse, CD-1 mice, male, oral gavage, 10 mg/kg, plasma. The class given is in vivo. The procedure: CD-1 mice were taken as test animals. Example 4, Example 22, and Comparative Example HRO761 were given by gavage. The drug concentrations in mouse plasma at different time points were determined by LC-MS/MS to investigate the pharmacokinetic characteristics of the compounds of the present disclosure in mice.
• Experimental drugs: Example 4, Example 22, and Comparative Example HRO761; • Animals: CD-1 mice, male, 24-25 g, purchased from Shanghai Jihui Laboratory Animal Care Co.,Ltd.
An appropriate amount of Example 4, Example 22, and Comparative Example HRO761 was weighed and sequentially added to an appropriate amount of dimethyl sulfoxide, solutol, and saline (final solvent: 5% DMSO + 10% solutol + 85% saline). The mixture was vortexed and sonicated to prepare a 1.0 mg/mL dosing solution.
Three mice in gavage groups of Example 4, Example 22, and Comparative Example HRO761 were administered by oral gavage after overnight fasting (dose: 10 mg/kg, administration volume: 10 mL/kg), and the mice were fed 4 h after administration.
0.04 mL of blood was collected from the animals before administration and at 0.083 h, 0.25 h, 0.5 h, 1 h, 2 h, 4 h, 6 h, 8 h, and 24 h after administration, and anticoagulated with sodium heparin. Blood samples were placed on ice after collection, and plasma was separated by centrifugation (centrifugation conditions: 8000 rpm, 5 min). The collected plasma was stored at -80°C before analysis.
LC-MS/MS was used to determine the content of the test compound in mouse plasma after intragastric administration.
Based on the calculated concentrations of the compounds in plasma at different time points, the pharmacokinetic parameters of Example 4, Example 22, and Comparative Example HRO761 in mice were calculated using winnonlin software. The pharmacokinetic parameters of Example 4, Example 22, and Comparative Example HRO761 of the present disclosure are shown in Table 13.

Data set [9] has as its system HCT116 cells. In words: Cell proliferation assay (CellTiter-Glo), HCT116. The class given is cell-based. The following applies: Homo sapiens, 120 h, HCT-116, 5 days incubation. How it is done:
as §3, §4

Turning to `CCc1c(N2CCN(C(=O)c3ncnc(C)c3O)CC2)c(=O)n2nc(C3=CCOCC3)nc2n1CC(=O)Nc1ccc(C(F)(F)F)cc1Cl` [HRO761, reference compound], the values for the EC50 in data set [1], in data set [2] and in data set [3] were 324 nM, 640 nM and more than 10000 nM, respectively. Also, the Cmax is 6960 ng/mL in data set [4] and 11200 ng/mL in data set [8]. The AUC came to 63600 ng·h/mL in data set [4] (read-out: AUC0-i) and 28300 ng·h/mL in data set [8] (read-out: AUC0-i). In addition, the IC50 in data set [5] was 220 nM; in [6], 144 nM; in [7] it was more than 25000 nM; in data set [9], 143 nM.

For orientation: EC50 means the concentration at which the effect is half-maximal. Broadly, the Cmax is the highest concentration seen after dosing. The IC50 is the concentration that gives 50% inhibition.
